Data as given in article PMC11768629, “Potential Interaction of Pinocembrin with Drug Transporters and Hepatic Drug-Metabolizing Enzymes” (Pharmaceuticals, 2025).

Key:
CYP2B6 = target: T1, CYP2B6 (Homo sapiens, UniProt P20813); assay: Cell-free CYP450 inhibition assay, CYP2B6; type: biochemical; details: cell-free fluorescent probe assay, BACULOSOMES
T1 construct: purchased Life Technologies
Method: To determine whether pinocembrin influences the catalytic activity of CYP450 enzymes, fluorescent probe reaction assays were performed using varying concentrations of pinocembrin. […] In addition, molecular docking was conducted to better understand the binding mode and interactions between pinocembrin and human CYP2C19.
The CYP450 inhibitory activity of pinocembrin was determined using a P450 screening kit (Life Technologies; Carlsbad, CA, USA). Varied concentrations of pinocembrin were prepared in methanol. […] The fluorescence intensities were monitored every minute for 60 min at room temperature. The percentage of inhibition was calculated according to the following equation: % Inhibition=(1−X−B/A−B)×100% where X is the fluorescence intensity observed in the presence of pinocembrin.

hOAT3 = target: T2, hOAT3 (Homo sapiens, UniProt Q8TCC7); assay: Pinocembrin treatment followed by 3H-estrone sulfate accumulation in hOAT3-MDCK cells; type: cell-based; details: 1, 10 and 50 μM for 24 h, concentration-dependent, compared with vehicle
T2 construct: host or cells: MDCK
T2 sequence (Q8TCC7 1-542): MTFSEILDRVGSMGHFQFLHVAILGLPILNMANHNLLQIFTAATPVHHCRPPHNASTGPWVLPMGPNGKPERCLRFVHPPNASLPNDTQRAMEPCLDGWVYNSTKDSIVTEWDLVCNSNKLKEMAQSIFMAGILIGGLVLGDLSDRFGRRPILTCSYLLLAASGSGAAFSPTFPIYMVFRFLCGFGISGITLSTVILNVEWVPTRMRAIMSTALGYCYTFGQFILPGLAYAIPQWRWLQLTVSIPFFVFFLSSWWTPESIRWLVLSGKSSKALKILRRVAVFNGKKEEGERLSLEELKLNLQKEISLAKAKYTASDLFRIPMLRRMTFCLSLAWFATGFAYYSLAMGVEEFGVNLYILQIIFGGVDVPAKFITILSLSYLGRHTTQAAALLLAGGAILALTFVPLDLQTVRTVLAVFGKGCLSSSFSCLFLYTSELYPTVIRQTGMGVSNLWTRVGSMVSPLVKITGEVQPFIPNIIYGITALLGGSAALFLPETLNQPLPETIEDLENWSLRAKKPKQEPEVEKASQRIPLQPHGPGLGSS
Method: The hOAT1-MDCK cells and hOAT3-MDCK cells were treated with 1, 10, and 50 μM pinocembrin for 24 h, followed by a measurement of ^3H-PAH and ^3H-estrone sulfate cellular accumulation. […] The inhibitory effect of pinocembrin occurred in a concentration-dependent manner.
A cell monolayer comprising hOAT1-MDCK, hOAT3-MDCK, hOCT1-CHO-K1, hOCT2-CHO-K1, hMATE1-CHO-K1, hMATE2-CHO-K1, and mock cells were utilized for the uptake experiments. The cells were washed three times with a buffer containing (in mM) 140 NaCl, 5 KCl, 0.4 MgSO4, 0.5 MgCl2, 1 CaCl2, 0.3 Na2HPO4, 0.4 KH2PO4, 6 D-glucose, and 4 NaHCO3 at pH 7.4 and incubated at 37 °C for 15 min. After incubation, the hOAT1-MDCK and hOAT3-MDCK cells were incubated for 10 min with ^3H-PAH and ^3H-estrone sulfate, a substrate of hOAT1 and hOAT3, respectively. The hOCT1-CHO-K1 and hOCT2-CHO-K1 cells were incubated with ^3H-MPP^+, a substrate of OCT1 and OCT2, for five minutes. The functions of MATE1 and MATE2 were determined by incubating the hMATE1-CHO-K1 and hMATE2-CHO-K1 cells with a buffer containing ^3H-MPP^+, a substrate of MATE1 and MATE2, at pH 8.5 for five minutes. The cells were washed three times with an ice-cold buffer to stop the transport function. […] The samples were collected and transferred to vials containing a liquid scintillation cocktail to measure radioactivity by a β-counter (Packard BioScience, Wellesley, MA, USA). […]

CYP2A6 = system: CYP2A6; design: method as in PMID 34069400, doi:10.5562/cca3652, PMID 35721953; details: cited from earlier work
BCRP = system: BCRP; design: method as in PMID 22263589, PMID 23497885; details: cited from earlier work
hMATE1 = target: T3, hMATE1 (Homo sapiens, UniProt Q96FL8); assay: Cis-inhibition assay, 3H-MPP+ uptake in hMATE1-CHO-K1 cells; type: cell-based; details: pinocembrin, pH 8.5
T3 construct: host or cells: CHO-K1
Method: (§1) Next, the effects of pinocembrin on the transport function of renal drug transporters, including hOAT1, hOAT3, hOCT1, hOCT2, hMATE1, and hMATE2, were determined.
(§2) A cell monolayer comprising hOAT1-MDCK, hOAT3-MDCK, hOCT1-CHO-K1, hOCT2-CHO-K1, hMATE1-CHO-K1, hMATE2-CHO-K1, and mock cells were utilized for the uptake experiments. The cells were washed three times with a buffer containing (in mM) 140 NaCl, 5 KCl, 0.4 MgSO4, 0.5 MgCl2, 1 CaCl2, 0.3 Na2HPO4, 0.4 KH2PO4, 6 D-glucose, and 4 NaHCO3 at pH 7.4 and incubated at 37 °C for 15 min. After incubation, the hOAT1-MDCK and hOAT3-MDCK cells were incubated for 10 min with ^3H-PAH and ^3H-estrone sulfate, a substrate of hOAT1 and hOAT3, respectively. The hOCT1-CHO-K1 and hOCT2-CHO-K1 cells were incubated with ^3H-MPP^+, a substrate of OCT1 and OCT2, for five minutes. The functions of MATE1 and MATE2 were determined by incubating the hMATE1-CHO-K1 and hMATE2-CHO-K1 cells with a buffer containing ^3H-MPP^+, a substrate of MATE1 and MATE2, at pH 8.5 for five minutes. The cells were washed three times with an ice-cold buffer to stop the transport function. The cells were lyzed with 0.4 N NaOH for at least four hours. The samples were collected and transferred to vials containing a liquid scintillation cocktail to measure radioactivity by a β-counter (Packard BioScience, Wellesley, MA, USA). […]

hOAT1 = target: T4, hOAT1 (Homo sapiens, UniProt Q4U2R8); assay: Cis-inhibition assay, 3H-PAH uptake in hOAT1-MDCK cells; type: cell-based; details: 10 µM pinocembrin, compared with vehicle control
T4 construct: host or cells: MDCK
T4 sequence (Q4U2R8 1-563): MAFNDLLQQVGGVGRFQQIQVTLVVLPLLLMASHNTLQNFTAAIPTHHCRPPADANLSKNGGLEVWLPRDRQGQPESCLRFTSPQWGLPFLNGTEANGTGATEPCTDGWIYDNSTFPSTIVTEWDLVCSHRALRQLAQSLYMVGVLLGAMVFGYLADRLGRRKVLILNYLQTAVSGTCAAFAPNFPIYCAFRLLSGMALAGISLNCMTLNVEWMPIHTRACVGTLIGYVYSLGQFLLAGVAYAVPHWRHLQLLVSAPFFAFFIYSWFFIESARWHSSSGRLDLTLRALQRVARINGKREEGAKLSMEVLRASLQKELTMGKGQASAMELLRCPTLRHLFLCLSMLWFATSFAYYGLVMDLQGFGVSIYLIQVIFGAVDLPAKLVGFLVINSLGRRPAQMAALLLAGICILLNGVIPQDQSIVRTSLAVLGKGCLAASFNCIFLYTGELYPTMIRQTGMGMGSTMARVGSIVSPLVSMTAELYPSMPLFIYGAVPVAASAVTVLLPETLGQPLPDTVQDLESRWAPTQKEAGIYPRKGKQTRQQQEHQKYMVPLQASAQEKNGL
Method: as §1, §2

OATP2B1 = system: OATP2B1; design: method as in PMID 28745105; details: transfected renal cells; read-out: IC50 on OATP2B1-mediated rosuvastatin uptake; cited from earlier work

T1 sequence (P20813 whole entry): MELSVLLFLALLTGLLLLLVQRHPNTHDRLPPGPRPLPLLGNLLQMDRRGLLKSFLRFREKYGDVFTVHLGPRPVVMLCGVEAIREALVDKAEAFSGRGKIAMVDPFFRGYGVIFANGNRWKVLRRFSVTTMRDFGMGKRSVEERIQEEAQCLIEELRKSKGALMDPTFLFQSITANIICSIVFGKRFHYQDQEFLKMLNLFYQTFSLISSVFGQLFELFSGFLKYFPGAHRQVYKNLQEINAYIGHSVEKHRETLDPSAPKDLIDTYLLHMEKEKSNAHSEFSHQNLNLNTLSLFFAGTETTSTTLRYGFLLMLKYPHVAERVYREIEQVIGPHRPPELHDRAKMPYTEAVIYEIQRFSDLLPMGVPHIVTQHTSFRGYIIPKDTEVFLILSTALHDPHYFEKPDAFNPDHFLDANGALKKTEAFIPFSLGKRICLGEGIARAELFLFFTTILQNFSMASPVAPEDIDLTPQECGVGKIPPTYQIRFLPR
T3 sequence (Q96FL8 whole entry): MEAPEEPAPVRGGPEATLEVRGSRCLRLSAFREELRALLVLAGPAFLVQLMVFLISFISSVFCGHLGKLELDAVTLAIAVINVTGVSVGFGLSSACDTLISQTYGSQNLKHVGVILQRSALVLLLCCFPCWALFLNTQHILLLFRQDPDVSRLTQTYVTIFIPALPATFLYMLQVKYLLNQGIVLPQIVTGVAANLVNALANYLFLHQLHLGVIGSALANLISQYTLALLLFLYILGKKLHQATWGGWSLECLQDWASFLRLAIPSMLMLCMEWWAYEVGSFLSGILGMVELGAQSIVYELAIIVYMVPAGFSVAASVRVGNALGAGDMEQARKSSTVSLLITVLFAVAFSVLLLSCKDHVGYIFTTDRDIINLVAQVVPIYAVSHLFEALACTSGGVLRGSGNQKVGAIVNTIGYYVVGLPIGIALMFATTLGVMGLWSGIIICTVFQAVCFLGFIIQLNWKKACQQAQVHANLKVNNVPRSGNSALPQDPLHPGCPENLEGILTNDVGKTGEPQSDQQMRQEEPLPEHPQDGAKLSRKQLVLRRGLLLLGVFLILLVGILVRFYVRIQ

IC50 (CYP2B6): 44 µM
3H-estrone sulfate accumulation after pinocembrin treatment (hOAT3): significantly decreased
hMATE1-mediated uptake of 3H-MPP+ (hMATE1): did not alter
3H-PAH cellular accumulation (hOAT1): significantly decreased
SMILES: O=C1C[C@@H](c2ccccc2)Oc2cc(O)cc(O)c21 [pinocembrin]
effect on the activity of CYP2A6 (CYP2A6): does not affect
effect on BCRP (BCRP): weakly inhibited
IC50 (OATP2B1): 8.9 µM
